Test results taken from patent publication US11807693B2 (priority 2014, dated 2023).
Where two headings read alike, the source gives them in different places. Starred links: 1 amine or outer side, 2 acyl side, 3 side chain; linkers in the order of their positions; H or OH if unused. Non-standard residues stand in square brackets, D forms with d. Residues, ends and D or L forms follow the SMILES beside them. *: point of attachment. Oic = O=C(O)[C@@H]1C[C@@H]2CCCC[C@@H]2N1; Phe(4-Cl) = N[C@@H](Cc1ccc(Cl)cc1)C(=O)O; γGlu = O=C(O)[C@H](CCC(=O)[*:2])N[*:1]; d(β3hF) = N[C@@H](CC(=O)O)Cc1ccccc1; NMeR = CN[C@@H](CCCNC(=N)N)C(=O)O; Palmitoyl = CCCCCCCCCCCCCCCC(=O)*; Tridecanoyl = CCCCCCCCCCCCC(=O)*; hArg = N=C(N)NCCCC[C@H](N)C(=O)O; β3hF = N[C@H](CC(=O)O)Cc1ccccc1; Cha = N[C@@H](CC1CCCCC1)C(=O)O; αMeL = CC(C)C[C@](C)(N)C(=O)O; αMeP = C[C@@]1(C(=O)O)CCCN1; Nle = CCCC[C@H](N)C(=O)O; AEEA = NCCOCCOCC(=O)O

What was measured:
rat plasma = details: 37° C., up to 4 hr
[1] = In vitro stability in rat liver homogenate; assay type: in vitro ADME; details: tissue homogenate
Procedure, shortened: (§1)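 Peptide remaining was followed by high-resolution LC-MS of methanol-quenched, centrifuged samples with internal standard. Incubations were at 37° C. over 4 hr, peptides at 5 μM final in rat plasma or in rat liver or kidney homogenate.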

[2] = In vivo pharmacokinetics in rat; parameters: species or system Sprague-Dawley rats; details: rat, in vivo, sc
Procedure: Evaluation of the in vivo pharmacokinetic profile of several pegylated and lipidated apelin polypeptides in rat was undertaken (FIGS. 9 and 10A-B). The apelin polypeptides were administered to Sprague-Dawley rats through subcutaneous (SC) administration and the pharmacokinetic profile for each polypeptide was subsequently evaluated. […] Blood samples collected over a 24 hr period were transferred into collection tubes containing potassium EDTA and stored on ice until processed. Plasma was obtained from blood by centrifugation. After transfer into a 96-well container, plasma samples were stored in a freezer maintained at approximately −80° C. Quantitative analysis of the apelin polypeptide in rat plasma samples was achieved using multiple reaction monitor (MRM) mode on a LC-MS/MS system.

[3] = In vitro stability in rat kidney homogenate; assay type: in vitro ADME; details: rat, tissue homogenate
Procedure, shortened: as §1

[4] = In vitro stability in rat plasma; assay type: in vitro ADME
Procedure, shortened: as §1

rat APJ receptor = target: T1, rat APJ receptor (Rattus norvegicus, UniProt Q9JHG3); experiment: [35S] GTPγS assay, rat APJ receptor; assay type: biochemical
T1 construct: expressed in transfected cells
T1 sequence (Q9JHG3 1-377): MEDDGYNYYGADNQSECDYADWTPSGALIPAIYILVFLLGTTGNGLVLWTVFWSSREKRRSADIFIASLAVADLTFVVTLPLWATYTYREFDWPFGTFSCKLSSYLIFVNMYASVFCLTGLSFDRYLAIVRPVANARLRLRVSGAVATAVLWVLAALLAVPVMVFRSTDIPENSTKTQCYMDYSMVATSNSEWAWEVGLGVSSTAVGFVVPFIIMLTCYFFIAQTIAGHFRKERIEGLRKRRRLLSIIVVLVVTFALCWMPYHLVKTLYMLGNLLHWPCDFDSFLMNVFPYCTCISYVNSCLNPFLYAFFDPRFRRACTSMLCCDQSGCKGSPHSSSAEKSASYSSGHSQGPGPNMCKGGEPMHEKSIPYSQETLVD
Procedure: The membranes were incubated with modified peptides in the assay buffer. […] Bound [^35S] GTPγS was separated from free radiolabel by filtration. The filter bound radioactivity was determined by liquid scintillation counting.

human APJ receptor = target: T2, human APJ receptor (Homo sapiens, UniProt P35414); experiment: [35S] GTPγS assay, human APJ receptor; assay type: biochemical
T2 construct: expressed in transfected cells
T2 sequence (P35414 1-380): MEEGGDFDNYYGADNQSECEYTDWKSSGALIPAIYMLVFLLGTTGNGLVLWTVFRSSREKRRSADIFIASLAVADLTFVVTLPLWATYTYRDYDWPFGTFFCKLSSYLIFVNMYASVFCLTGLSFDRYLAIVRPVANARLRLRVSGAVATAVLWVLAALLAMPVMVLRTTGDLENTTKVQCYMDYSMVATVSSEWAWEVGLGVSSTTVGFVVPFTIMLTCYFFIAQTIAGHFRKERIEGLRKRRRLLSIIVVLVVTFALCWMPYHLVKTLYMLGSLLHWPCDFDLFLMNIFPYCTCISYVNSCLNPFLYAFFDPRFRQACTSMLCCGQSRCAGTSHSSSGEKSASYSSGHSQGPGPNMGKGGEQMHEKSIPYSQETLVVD

| Compound | not cleaved (rat plasma) [% remaining at 4 hours] | remaining at 4 h, 5 μM [1] [%] | remaining at 4 h, 5 μM [3] [%] | remaining at 4 h, 5 μM [4] [%] | also measured |
| --- | --- | --- | --- | --- | --- |
| {Palm} [AC4Abu] [Aeea] [Aeea] q R P [NMeArg] [Cha] S H K G [Pip] [Nle] [Nip] [4-Cl-F] {COOH} | >90.0 | – | – | – | – |
| {Acetyl-NH} E r Q [hArg] P r [NMeLeu] S H K G [Oic] [pI-Phe] P [D-Bip] {COOH} | >90.0 | – | – | – | – |
| {Palm} [AC4Abu] [Aeea] [Aeea] q R P [NMeArg] [Cha] S H K G [Oic] [Nle] [Inp] [4-Cl-F] {COOH} | >90.0 | – | – | – | – |
| CCCCCCCCCCCCC(=O)N[C@@H](CCC(=O)NCCOCCOCC(=O)NCCOCCOCC(=O)N[C@@H](CCC(N)=O)C(=O)N[C@@H](CCCNC(=N)N)C(=O)N1CCC[C@H]1C(=O)N(C)[C@@H](CCCNC(=N)N)C(=O)N[C@@](C)(CC(C)C)C(=O)N[C@@H](CO)C(=O)N[C@@H](Cc1c[nH]cn1)C(=O)N[C@@H](CCCCN)C(=O)NCC(=O)N1[C@H](C(=O)N[C@@H](CCCC)C(=O)N2CCC[C@@]2(C)C(=O)N[C@@H](Cc2ccc(Cl)cc2)C(=O)O)C[C@@H]2CCCC[C@@H]21)C(=O)O [compound 376] ({Tridecanoyl-γGlu-AEEA-AEEA}-QRP[NMeR][αMeL]SHKG[Oic][Nle][αMeP][Phe(4-Cl)]-OH) | – | 10 | 13 | 83 | AUC(0-inf) ([2]; Sprague-Dawley, 0.5 mg/kg): 0.09 µM·h; half-life ([2]; Sprague-Dawley, 0.5 mg/kg): 88.8 min |
| CCCCCCCCCCCCC(=O)N[C@@H](CCC(=O)NCCOCCOCC(=O)NCCOCCOCC(=O)N[C@@H](CCC(N)=O)C(=O)N[C@@H](CCCNC(=N)N)C(=O)N1CCC[C@H]1C(=O)N(C)[C@@H](CCCNC(=N)N)C(=O)N[C@@H](CC1CCCCC1)C(=O)N[C@@H](CO)C(=O)N[C@@H](Cc1c[nH]cn1)C(=O)N[C@@H](CCCCN)C(=O)NCC(=O)N1[C@H](C(=O)N[C@@H](CCCC)C(=O)N2CCC[C@H]2C(=O)N[C@H](CC(=O)O)Cc2ccccc2)C[C@@H]2CCCC[C@@H]21)C(=O)O [Peptide 379] ({Tridecanoyl-γGlu-AEEA-AEEA}-QRP[NMeR][Cha]SHKG[Oic][Nle]P[β3hF]-OH) | – | – | – | – | AUC(0-inf) ([2]; 0.1 mg/kg): 0.145 µM·h; half-life ([2]; 0.1 mg/kg): 15.7 min |
| {TDA}[AC4Abu][Aeea][Aeea][hArg]rQ[hArg]Pr[NMeLeu]SHKG[Oic][pI-Phe]P[D-Bip]{COOH} | >90.0 | – | – | – | – |
| {Acetyl-NH} [hArg] r Q [hArg] P E [NMeLeu] S H K G [Oic] [pI-Phe] P [D-Bip] {COOH} | >90.0 | – | – | – | – |
| CCCCCCCCCCCCCCCC(=O)N[C@@H](CCC(=O)NCCOCCOCC(=O)NCCOCCOCC(=O)N[C@H](CCC(N)=O)C(=O)N[C@@H](CCCCNC(=N)N)C(=O)N1CCC[C@H]1C(=O)N[C@H](CCCNC(=N)N)C(=O)N[C@@H](CC1CCCCC1)C(=O)N[C@@H](CO)C(=O)N[C@@H](Cc1c[nH]cn1)C(=O)N[C@@H](CCCCN)C(=O)NCC(=O)N1[C@H](C(=O)N[C@@H](CCCC)C(=O)N2CCC[C@H]2C(=O)N[C@@H](CC(=O)O)Cc2ccccc2)C[C@@H]2CCCC[C@@H]21)C(=O)O [compound 614] ({Palmitoyl-γGlu-AEEA-AEEA}-[dQ][hArg]P[dR][Cha]SHKG[Oic][Nle]P[d(β3hF)]-OH) | – | 11 | 9 | 90 | EC50 (rat APJ receptor; rat APJ receptor, read-out: EC50 Rat APJ Receptor): 10.3 nM; EC50 (human APJ receptor; human APJ receptor): 1.25 nM |
| CCCCCCCCCCCCC(=O)N[C@@H](CCC(=O)NCCOCCOCC(=O)NCCOCCOCC(=O)N[C@@H](CCC(N)=O)C(=O)N[C@@H](CCCNC(=N)N)C(=O)N1CCC[C@H]1C(=O)N(C)[C@@H](CCCNC(=N)N)C(=O)N[C@@H](CC1CCCCC1)C(=O)N[C@@H](CO)C(=O)N[C@@H](Cc1c[nH]cn1)C(=O)N[C@@H](CCCCN)C(=O)NCC(=O)N1CCC[C@@]1(C)C(=O)N[C@@H](CCCC)C(=O)N1CCC[C@H]1C(=O)N[C@@H](Cc1ccc(Cl)cc1)C(=O)O)C(=O)O [compound 418] ({Tridecanoyl-γGlu-AEEA-AEEA}-QRP[NMeR][Cha]SHKG[αMeP][Nle]P[Phe(4-Cl)]-OH) | – | < 1 | 8 | > 90 | EC50 (rat APJ receptor; Table 16, read-out: EC50 Rat APJ Receptor): 0.253 nM; EC50 (human APJ receptor; Table 16): 0.147 nM |
| {Acetyl-NH} [hArg] E Q [hArg] P r [NMeLeu] S H K G [Oic] [pI-Phe] P [D-Bip] {COOH} | >90.0 | – | – | – | – |
